In patent publication US20170182049A1, “NOVEL THERAPEUTICS FOR BRAIN CANCER” (The Regents of the University of California, priority 2012, published 2017):
“Also recorded” adds a separate entry of the source. Each block holds one compound with its values, some of them ahead of it.

Experiments:
[1] = system: U87 human GBM cells; assay: U87 viability (Alamar Blue); assay type: cell-based; details: for IC50, U87 viability: U87 express low amounts of Olig2
Description: (§1) Culture and assay system: Ink4a/arfEGFR-VIII mouse cells and U87 human GBM cells were cultured in DMEM medium with 10% FBS. GBM4 and GBM8 patient-derived tumor neurosphere lines were cultured in stem cell medium supplemented with FGF and EGF. Primary normal human astrocytes (NHA) were cultured in astrocyte medium (Life Technologies, Grand Island N.Y.) with EGF. Cytotoxicity of the compounds was assessed by […] (MTT) reduction assay (for Ink4a/arfEGFR-VIII cells) as described earlier (Rajesh M et al., Journal of the American Chemical Society 129:11408-11420 (2007)) or by Alamar Blue assay (for all other cell types). For the MTT reduction assay, Ink4a/arfEGFR-VIII cells were grown in 96-well plates at a concentration of ˜2000 cells per well overnight and all assays were conducted in DMEM medium with 10% FBS and additives. For studies with inhibitor compounds, 10 mM stocks were serially diluted in dimethyl sulfoxide and further diluted into culture media to give appropriate concentrations while minimizing precipitation associated with serial dilutions in medium alone. Inhibitors were added to cells and left in the media for 72 hours. Cell viability for Ink4a/arfEGFR VIII cells was quantified at 540 nm after the addition of MTT (Sigma-Aldrich). Results were expressed as: […]
(§2) For GBM4, GBM8, U87, and NHA cell lines, viability was quantified by Alamar Blue Assay. In this assay, cells were treated with inhibitor compounds as described and Alamar Blue added after 72 hours. Emission values at 590 nm were measured after the addition of Alamar Blue. Dose-response curves for MTT assays and Alamar Blue Assays were plotted and IC50 values were calculated by using GraphPad Prism (GraphPad Prism Software, Inc., La Jolla, Calif.).

[2] = system: normal human astrocytes (NHA); assay: primary astrocyte viability (Alamar Blue); assay type: cell-based; details: for IC50, primary astrocyte viability: astrocytes express low amounts of Olig2
Description: as §1, §2

[3] = system: p21; assay: expression of p21, direct genetic target of OLIG2 (qPCR); assay type: cell-based, human
Text: (§3) FIGS. 17A-17B. OLIG2 inhibitor affects expression of direct genetic targets of OLIG2. […] (FIG. 17A) Escalating OLIG2 inhibitor doses led to increased levels of p21.
(§4) mRNA was extracted from different cell lines with the AllPrep DNA/RNA Mini Kit (Qiagen, Inc.), followed by cDNA synthesis using the iScript cDNA Synthesis Kit (Bio-Rad, Inc). To investigate single-gene expression patterns, individual gene primers were purchased from Allele Biotechnology and Pharmaceuticals Inc. SYBR Green Real Time PCR master mixes were purchased from Roche Corporation. qPCR was performed with primers specific for OLIG2, p21, and OMG genes. Individual gene expression was normalized to expression of beta-Actin. Histograms show mean and standard error of the mean (SEM) from three separate experiments.

[4] = system: OMG; assay: expression of OMG, direct genetic target of OLIG2 (qPCR); assay type: cell-based, human
Text: as §3, §4

[5] = system: GBM4 cells; assay: GBM4 neurosphere viability (Alamar Blue); assay type: cell-based, human; details: grown as neurospheres, inhibitor given alone
Description: as §1, with “For studies with inhibitor compounds, 10 mM stocks were serially diluted in dimethyl sulfoxide and further diluted into culture media to give appropriate concentrations while minimizing precipitation associated with serial dilutions in medium alone. Inhibitors were added to cells and left in the media for 72 hours.” left out
as §2, with “In this assay, cells were treated with inhibitor compounds as described and Alamar Blue added after 72 hours.” left out

[6] = system: GBM8 cells; assay: GBM8 neurosphere viability (Alamar Blue); assay type: cell-based, human; details: grown as neurospheres, inhibitor given alone
Description: as §1, with “For studies with inhibitor compounds, 10 mM stocks were serially diluted in dimethyl sulfoxide and further diluted into culture media to give appropriate concentrations while minimizing precipitation associated with serial dilutions in medium alone. Inhibitors were added to cells and left in the media for 72 hours.” left out
as §2, with “In this assay, cells were treated with inhibitor compounds as described and Alamar Blue added after 72 hours.” left out

[7] = system: GBM4 neurospheres; assay: GBM4 neurosphere formation, light microscopy; assay type: cell-based, human; details: 0.1 uM and 5 uM, 72 h
[8] = GBM4 cells, escalating doses (18 h in FIG. 17)

- IC50, U87 viability [1]: high
Structure (SMILES): CCN1CCCC(Nc2cc(C)nc(NC(=N)Nc3ccc(Cl)c(Cl)c3)n2)C1 (stereo not shown) [SKOG-101]
- IC50, primary astrocyte viability [2]: high
- P21 levels ([3]; FIG. 6, relative to vehicle control): rose markedly
- levels of OMG ([4]; FIG. 7, relative to vehicle control): went down markedly

- IC50, U87 viability [1]: high
Structure (SMILES): CCN1CCCC(Nc2cc(C)nc(NC(=N)Nc3ccc(Cl)c(Cl)c3)n2)C1 (stereo not shown) [SKOG-102]
- suppression of GBM4 cells [5]: markedly suppressed; also recorded: active
- suppression of GBM8 cells [6]: markedly suppressed; also recorded: active
- suppression of U87 cells ([1]; compared with GBM4/8 cells): a higher dose was needed
- IC50 of NHA relative to GBM4 cells ([2]; NHA vs GBM4): ~20 fold
- IC50, primary astrocyte viability [2]: high
- inhibition of neurosphere formation in GBM4 cells (active / inactive compound) [7]: active
- expression of p21 [3, 8]: increased in a dose-dependent manner
- expression of OMG [4, 8]: suppressed; also recorded: decline
